Data reported in patent publication US9315522B2, “Antibacterial compounds” (JANSSEN SCIENCES IRELAND UC, priority 2012, dated 2016).
≈ marks a conversion by molar mass, not a printed value. Where two headings read alike, the source gives them in different places.

What was measured:
[1] = test system: Staphylococcus aureus ATCC 29213; assay: Antibacterial susceptibility testing, IC90 determination (STA); format: cell-based; details: resazurin; for STA (361.159) IC90: Staphylococcus aureus ATCC 29213, broth microdilution; for IC90: Staphylococcus aureus, ATCC29213, Staphylococcus aureus ATCC 29213, broth microdilution, read-out: STA (361.159) IC90
Procedure, shortened: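 S. aureus ATCC 29213 tested by broth microdilution in Mueller-Hinton broth, 5×10^5 CFU/ml, two-fold compound dilutions typically 63 to 0.49 μM, 1.25% DMSO, 16-20 h at 35° C. Growth read fluorometrically with resazurin (ex 540/em 590 nm); IC90 in μg/ml is 90% growth-inhibitory concentration.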

S. aureus = assay: Antibacterial susceptibility testing, IC90 determination with 10% human serum (STA + 10% HS); format: cell-based, Staphylococcus aureus; details: human serum at final concentration of 10%; for IC90: Staphylococcus aureus, read-out: STA + 10% HS (361.169) IC90
Procedure, shortened: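 Broth microdilution in Mueller-Hinton broth with 10% human serum, 5×10^5 CFU/ml S. aureus, two-fold compound dilutions (typically 63 to 0.49 μM), 1.25% DMSO, 16-20 h at 35° C. Growth read fluorometrically with resazurin (ex 540/em 590 nm); IC90 in μg/ml is the 90% growth-inhibitory concentration.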

[2] = molecular target: T1, S. aureus ATCC 29213 FabI (Staphylococcus aureus, UniProt Q6GI75); assay: Staphylococcus aureus FabI enzyme inhibition assay; format: biochemical; details: read-out: FabI (300.235) IC50 (converted)
T1 sequence (Q6GI75 1-256): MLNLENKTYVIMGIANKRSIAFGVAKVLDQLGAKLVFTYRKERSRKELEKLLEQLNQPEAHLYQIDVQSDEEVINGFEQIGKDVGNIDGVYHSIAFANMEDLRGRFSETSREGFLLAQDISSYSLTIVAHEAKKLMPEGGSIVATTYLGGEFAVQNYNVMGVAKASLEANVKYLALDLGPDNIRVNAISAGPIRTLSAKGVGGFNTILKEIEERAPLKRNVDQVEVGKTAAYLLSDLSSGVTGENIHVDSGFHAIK
Procedure, shortened: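 S. aureus ATCC 29213 FabI (50 μg/ml) with 250 μM crotonoyl-CoA and 625 μM NADH in 100 mM NaADA pH 6.5, inhibitor 50–0.39 μM, 30 min at room temperature. Stopped by Tris pH 9.0 shift; NADH at 340 nm versus no-compound and no-enzyme controls; IC50 in μg/ml.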

Human HelaM cells = assay: Cytotoxicity MTT assay (HELAM); format: cell-based; details: 72 hours
Procedure, shortened: (§1)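 HelaM cells exposed 72 h at 37° C to serial dilutions, typically 25 to 0.8 μM, in 0.5% DMSO. MTT formazan dissolved in 2-propanol, absorbance at 540 nm minus 690 nm; CC50 is concentration halving viability.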

[3] = Cytotoxicity MTT assay (HELAM); format: cell-based, Human; details: human, HelaM cells, read-out: HELAM (222.125) CC50
Procedure, shortened: as §1

[4] = Thermodynamic solubility (pH solubility profiling); format: physicochemical; details: thermodynamic from solid
Procedure: The pH solubility profiling was carried out at ambient temperature for a period of 4 days. A saturation solubility study was carried out in order to determine maximum solubility in a particular buffer solution. The compound was added to respective buffer solution until saturation point is reached. This was followed by shaking the flask for 4 days at ambient temperature. After 4 days, the solutions were filtered and injected on UPLC and the concentration was determined using a generic HPLC method.

[5] = In vivo pharmacokinetic and oral bioavailability in mouse; set-up: species or system male Swiss mice; details: for Vdz: i.v.; for half-life: read-out: Half life (t1/2) (converted); for clearance: read-out: Plasma clearance Cl (converted)
Procedure: The in vivo pharmacokinetics and oral bioavailability of the compound of the examples were/are investigated in male Swiss mice (fed) following single intravenous (i.v.) bolus and oral (p.o.) administration. For the i.v. and p.o. solution formulations, the compound was/is dissolved in a 20% HP-β-CD solution. The pH of the formulations was/is around pH 4. All i.v. formulations were isotonic.

[6] = test system: S. aureus strain ATCC 29213; assay: In vivo efficacy, peritonitis model of S. aureus infection; details: female Swiss albino mice, IP infection, inoculum 8.7 log10, IV, QD, 20% CD + 2H2T, 3 days post-infection
Description: The concept of studying the in vivo effect of an antibacterial compound by treating intraperitoneally infected mice was introduced in 1911 for optochin against pneumococci (Morgenroth and Levy, 1911). The popularity of the model comes from the ease of its use with short-duration experiments, reproducible infections and simple end-points.
Methicillin-sensitive S. aureus strain ATCC 29213 was used to infect female Swiss albino mice. A Brain Heart Infusion (BHI) broth bacterial culture was inoculated the day before infection, incubated at 37° C. overnight and diluted in fresh BHI broth to the desired concentration. Intraperitoneal (i.p.) injection of ˜5×10^9 colony forming units (CFU) was performed in either of the lateral lower quadrants of the abdomen. After inoculation, mice were kept in their cages under daily observation for development of signs of infection or death. For the treatment of mice, the p.o. route was used and each mouse was treated individually by gavage. Example of Cpd No. 48 was formulated as a 20% HP-β-cyclodextrin and example of Cpd No. 38 was formulated as a water/Tween-20 suspension. The parameter used for monitoring the course of infection and the effect of treatment was death or survival of the animals over 3 days post-infection. As death could also be due to toxic side effects, a non-infected control group of 3 mice, treated with the highest dose of the compound tested, was included.

[7] = aqueous buffer, Buffer pH 4, ambient temperature
[8] = aqueous buffer, Buffer pH 7.4, ambient temperature
[9] = aqueous with cosolvent or surfactant or cyclodextrin, 10% HP-β-CD buffer pH 4, ambient temperature
[10] = aqueous with cosolvent or surfactant or cyclodextrin, 10% HP-β-CD buffer pH 7.4, ambient temperature
[11] = aqueous with cosolvent or surfactant or cyclodextrin, 20% HP-β-CD buffer pH 4, ambient temperature
[12] = aqueous with cosolvent or surfactant or cyclodextrin, 20% HP-β-CD buffer pH 7.4, ambient temperature
[13] = pH 2, aqueous with cosolvent or surfactant or cyclodextrin, 20% HP-β-CD 0.01N HCl, ambient temperature
[14] = pH 2, simulated gastric fluid, 0.01N HCl, ambient temperature
[15] = 2.5 mg/kg, 20% HP-β-cyclodextrin
[16] = male, Swiss, plasma, iv, 2.5 mg/kg, 20% HP-β-cyclodextrin
[17] = male, Swiss, plasma, po, 10 mg/kg, 20% HP-β-cyclodextrin
[18] = male, Swiss, plasma, po, 5 mg/kg, 20% HP-β-cyclodextrin

For `O=C1Nc2ncc(/C=C/C(=O)N3CC4C=C(c5ccccc5)CC4C3)cc2CN2CCOCC12` (stereo not drawn) [compound 69], the “STA (361.159) IC90” value [1] was 0.15 µg/mL, the “STA + 10% HS (361.169) IC90” value (S. aureus) was 0.22 µg/mL and the IC50 [2] was 1030 nM. For the same compound, the “HELAM (222.125) CC50” value (Human HelaM cells) was 8.31 µg/mL.

In the case of `O=C(Nc1ccc(/C=C/C(=O)N2CC3C=C(c4ccncc4)CC3C2)cn1)c1cccnc1` (stereo not drawn) [compound 9], the IC90 [1] is reported as 0.34 µg/mL (≈ 0.777 µM), the IC90 (S. aureus) is reported as 0.39 µg/mL and the CC50 at 72 h [3] is reported as > 11 µg/mL. For the same compound, the solubility thermodynamic at 4 days [4, 7] was 120 µg/mL (≈ 274 µM), the solubility thermodynamic at 4 days [4, 8] was < 10 µg/mL and the solubility thermodynamic at 4 days [4, 9] was 830 µg/mL (≈ 1900 µM). For the same compound, the solubility thermodynamic at 4 days [4, 10] was > 1120 µg/mL, the solubility thermodynamic at 4 days [4, 11] was > 5230 µg/mL and the solubility thermodynamic at 4 days [4, 12] was > 4940 µg/mL. For the same compound, the solubility thermodynamic at 4 days [4, 13] was > 4930 µg/mL, the solubility thermodynamic at 4 days [4, 14] was > 1250 µg/mL and the melting point was 196 °C.

With `O=C1CNCc2cc(/C=C/C(=O)N3CC4C=C(c5ccccc5)CC4C3)cnc2N1` (stereo not drawn) [compound 47] the “STA (361.159) IC90” value [1] was 0.24 µg/mL, the “STA + 10% HS (361.169) IC90” value (S. aureus) was 0.26 µg/mL and the IC50 [2] was 874 nM. The “HELAM (222.125) CC50” value (Human HelaM cells) was >10.06 µg/mL.

For `CN1CC(=O)Nc2ncc(/C=C/C(=O)N3C[C@@H]4CN(c5ccccc5)C[C@@H]4C3)cc2C1` [compound 60], the “STA (361.159) IC90” value [1] was 5.50 µg/mL, the “STA + 10% HS (361.169) IC90” value (S. aureus) was 3.85 µg/mL and the IC50 [2] was 2180 nM. The “HELAM (222.125) CC50” value (Human HelaM cells) was >10.49 µg/mL and the melting point was 178 °C.

In the case of `O=C1Nc2ncc(/C=C/C(=O)N3CC4C=C(c5nccs5)CC4C3)cc2CN2CCOCC12` (stereo not drawn) [Cpd. No. 74], the IC90 [1] is reported as < 0.23 µg/mL, the IC90 (S. aureus) is reported as < 0.23 µg/mL and the IC50 [2] is reported as 992 nM. The CC50 at 72 h [3] was > 11.2 µg/mL, the solubility thermodynamic at 4 days [4, 7] was 40 µg/mL (≈ 86.3 µM) and the solubility thermodynamic at 4 days [4, 8] was 30 µg/mL (≈ 64.7 µM). For the same compound, the solubility thermodynamic at 4 days [4, 9] was > 1280 µg/mL, the solubility thermodynamic at 4 days [4, 10] was > 1210 µg/mL and the solubility thermodynamic at 4 days [4, 11] was > 2360 µg/mL. The solubility thermodynamic at 4 days [4, 12] was > 1330 µg/mL, the solubility thermodynamic at 4 days [4, 13] was > 2360 µg/mL and the solubility thermodynamic at 4 days [4, 14] was 670 µg/mL (≈ 1450 µM). For the same compound, the melting point was > 260 °C.

For `O=C1Nc2ncc(/C=C/C(=O)N3CC4C=C(c5ccccc5)CC4C3)cc2CN2CCNCC12` (stereo not drawn) [compound 79], the IC90 [1] was 0.36 µg/mL (≈ 0.79 µM), the IC90 (S. aureus) was < 0.22 µg/mL and the IC50 [2] was 1320 nM. The CC50 at 72 h [3] was > 11.4 µg/mL, the solubility thermodynamic at 4 days [4, 7] was 150 µg/mL (≈ 329 µM) and the solubility thermodynamic at 4 days [4, 8] was 10 µg/mL (≈ 22 µM). The solubility thermodynamic at 4 days [4, 9] was > 5330 µg/mL, the solubility thermodynamic at 4 days [4, 10] was > 5110 µg/mL and the solubility thermodynamic at 4 days [4, 11] was > 4450 µg/mL. For the same compound, the solubility thermodynamic at 4 days [4, 12] was > 4880 µg/mL, the solubility thermodynamic at 4 days [4, 13] was > 4490 µg/mL and the solubility thermodynamic at 4 days [4, 14] was > 1160 µg/mL. For the same compound, the melting point was 191 to 216 °C.

With `O=C1CNCc2cc(/C=C/C(=O)N3CC4C=C(c5ccccc5)CC4C3)cnc2N1` (stereo not drawn) [Cpd. No. 38] the IC90 [1] was < 0.19 µg/mL, the IC90 (S. aureus) was 0.24 µg/mL and the IC50 [2] was 1050 nM. For the same compound, the Vdz [5, 15] was 3.1 L/kg, the AUC(0-inf) [5, 16] was 2000 ng·h/mL and the half-life [5, 16] was 1.7 h. The clearance [5, 16] was 21.7 mL/min/kg, the AUC(0-inf) [5, 17] was 2860 ng·h/mL and the Cmax [5, 17] was 665 ng/mL. The Tmax [5, 17] was 1.7 h, the half-life [5, 17] was 2.2 h and the bioavailability ([5]; male, Swiss, plasma, po, p.o. 10 mg/kg vs i.v. 2.5 mg/kg) was 36%. For the same compound, the CC50 at 72 h [3] was > 10.1 µg/mL, the “% Survival” value ([6]; 2.5 mpk) was 75% and the “% Survival” value ([6]; 5 mpk) was 100%.

With `O=C1COc2cc(/C=C/C(=O)N3CC4C=C(c5ccccc5)CC4C3)cnc2N1` (stereo not drawn) [compound 37] the IC90 [1] was < 0.19 µg/mL, the IC90 (S. aureus) was 0.25 µg/mL and the IC50 [2] was ~1160 nM. The Vdz [5, 15] was 1.5 L/kg, the AUC(0-inf) [5, 16] was 7890 ng·h/mL and the C0 [5, 16] was 3930 ng/mL. The half-life [5, 16] was 3.33 h, the clearance [5, 16] was 5.33 mL/min/kg and the AUC(0-inf) [5, 18] was 15600 ng·h/mL. The Cmax [5, 18] was 2330 ng/mL, the Tmax [5, 18] was 1 h and the half-life [5, 18] was 3.5 h. For the same compound, the bioavailability ([5]; male, Swiss, plasma, po, p.o. 5 mg/kg vs i.v. 2.5 mg/kg) was 98%, the CC50 at 72 h [3] was > 9.73 µg/mL and the melting point was > 260 °C.
